Measured values as given in patent US4508719A, “Hydroxyimino and alkoxyimino derivatives of 1,4-dihydropyridine and anti-hypertensive compositions” (Pierrel S.p.A., priority 1982, dated 1985).
Read-outs that look alike come from different tables or passages of the source.

Assays:
in vivo = details: mouse, iv
Experimental: Male CD1 mice from Charles River, weighing 25 g, are used. Compounds are administered intravenously (i.v.), dissolved in dimethylsulfoxide, and the volume of administration is 0.01 ml/10 g of body weight. The lethal dose, LD50 after seven days, is calculated according to the method of Litchfield and Wilcoxon (Exp. Ther. 96, 99 (1949)).

[1] = test system: taenia coli of guinea pigs, depolarized, stimulated with CaCl2; assay: Antagonistic activity to calcium in the taenia coli of guinea pigs (in vitro); assay type: cell-based, Hartley albino guinea pigs; details: for IC50: Cavia porcellus, read-out: Ca--antagonistic activity in vitro ED50
Experimental: Hartley albino guinea pigs of average weight 450 g are used. […] The compounds are allowed to stand in contact with the preparation for ten minutes. The activities ED50 are calculated from the maximum percentage of inhibition.

[2] = taenia coli, CaCl2 10^-3 M, ten minutes contact, from maximum percentage of inhibition (for 0265B, 0246B, 0247B, 0270B, 0224A independent of time of appearance)

## CCON=C(C)C1=C(C)NC(C)=C(C(=O)OC)C1c1cccc([N+](=O)[O-])c1 (centres unmarked) [0235A, Methyl 2,6-dimethyl-3-(1-ethoxyimino)ethyl-4-(3-nitrophenyl)-1,4-dihydropyridin-5-carboxylate]
In vivo
  LD50 at 168 h: 30.6 mg/kg
[1]; [2]
  IC50: 7.4 nM

## COC(=O)C1=C(C)NC(C)=C(C(C)=NOCCN(C)C)C1c1cccc([N+](=O)[O-])c1 (centres unmarked) [0274B]
In vivo
  LD50 at 168 h: 38.3 mg/kg
[1]; [2]
  IC50: 510 nM

## CCOC(=O)CON=C(C)C1=C(C)NC(C)=C(C(=O)OC)C1c1cccc([N+](=O)[O-])c1 (centres unmarked) [0234A, Methyl 2,6-dimethyl-3-[1-(ethoxycarbonyl)methoxyimino]ethyl-4-(3-nitrophenyl)-1,4-dihydro-pyridin-5-carboxylate]
In vivo
  LD50 at 168 h: 17.3 mg/kg
[1]; [2]
  IC50: 29 nM

## COC(=O)C1=C(C)NC(C)=C(C(C)=NOCCN(C)Cc2ccccc2)C1c1cccc([N+](=O)[O-])c1 (centres unmarked) [0224A, Methyl 2,6-dimethyl-3-[1-(2-N-benzyl-N-methylamino)ethoxy-imino]ethyl-4-(3-nitrophenyl)-1,4-dihydropyridin-5-carboxylate]
In vivo
  LD50 at 168 h: 3.3 mg/kg
[1]; [2]
  IC50: 18 nM
[1]; taenia coli
  inhibition of contractions due to CaCl2 after repeated washing of the tissue: increases progressively in spite of repeated washing of the tissue

## COC(=O)C1=C(C)NC(C)=C(C(C)=NOCc2ccccc2)C1c1cccc([N+](=O)[O-])c1 (centres unmarked) [0247B]
In vivo
  LD50 at 168 h: 28.9 mg/kg
[1]; [2]
  IC50: 4.8 nM
[1]; taenia coli
  inhibition of contractions due to CaCl2 after repeated washing of the tissue: increases progressively in spite of repeated washing of the tissue

## CCOCCON=C(COC)C1=C(C)NC(C)=C(C(=O)OC)C1c1cccc([N+](=O)[O-])c1 (centres unmarked) [0286C]
In vivo
  LD50 at 168 h: > 160 mg/kg
[1]; [2]
  IC50: 370 nM

## COC(=O)C1=C(C)NC(C)=C(C(C)=NO)C1c1cccc([N+](=O)[O-])c1 (centres unmarked) [0227A, Methyl 2,6-dimethyl-3-(1-hydroxyimino)ethyl-4-(3-nitrophenyl)-1,4-dihydropyridine-5-carboxylate]
In vivo
  LD50 at 168 h: 15.2 mg/kg
[1]; [2]
  IC50: 270 nM

## COC(=O)C1=C(C)NC(C)=C(C(=O)OCCN(C)Cc2ccccc2)C1c1cccc([N+](=O)[O-])c1 (centres unmarked) [Nicardipine, reference compound]
In vivo
  LD50 at 168 h: 17.4 mg/kg
[1]; [2]
  IC50: 2.3 nM

## COC(=O)C1=C(C)NC(C)=C(C(C)=NOC2CCCC2)C1c1cccc([N+](=O)[O-])c1 (centres unmarked) [0270B]
In vivo
  LD50 at 168 h: 70.3 mg/kg
[1]; [2]
  IC50: 5.6 nM
[1]; taenia coli
  inhibition of contractions due to CaCl2 after repeated washing of the tissue: increases progressively in spite of repeated washing of the tissue

## C=CCON=C(C)C1=C(C)NC(C)=C(C(=O)OC)C1c1cccc([N+](=O)[O-])c1 (centres unmarked) [0245B]
In vivo
  LD50 at 168 h: 35.4 mg/kg
[1]; [2]
  IC50: 4.7 nM

## COC(=O)C1=C(C)NC(C)=C(C(C)=NOC(C)C)C1c1cccc([N+](=O)[O-])c1 (centres unmarked) [0265B]
In vivo
  LD50 at 168 h: 27.6 mg/kg
[1]; [2]
  IC50: 4.4 nM
[1]; taenia coli
  inhibition of contractions due to CaCl2 after repeated washing of the tissue: increases progressively in spite of repeated washing of the tissue

## COC(=O)C1=C(C)NC(C)=C(C(=O)OC)C1c1ccccc1[N+](=O)[O-] [Nifedipine, reference compound]
[1]
  IC50: 2.6 nM

## CCOC(=O)C1=C(C)NC(C)=C(C(=O)OC)C1c1cccc([N+](=O)[O-])c1 (centres unmarked) [Nitrendipine, reference compound]
In vivo
  LD50 at 168 h: 34.5 mg/kg
[1]; [2]
  IC50: 1.9 nM

## CON=C(C)C1=C(C)NC(C)=C(C(=O)OC)C1c1cccc([N+](=O)[O-])c1 (centres unmarked) [0251A, Methyl 2,6-dimethyl-3-(1-methoxyimino)ethyl-4-(3-nitrophenyl)-1,4-dihydropyridin-5-carboxylate]
In vivo
  LD50 at 168 h: 27.3 mg/kg
[1]; [2]
  IC50: 26 nM

## COC(=O)C1=C(C)NC(C)=C(C(C)=NOCCN2CCCCC2)C1c1cccc([N+](=O)[O-])c1 (centres unmarked) [0276B]
In vivo
  LD50 at 168 h: 22.7 mg/kg
[1]; [2]
  IC50: 220 nM

## CCOCCON=C(C)C1=C(C)NC(C)=C(C(=O)OC)C1c1cccc([N+](=O)[O-])c1 (centres unmarked) [0254B]
In vivo
  LD50 at 168 h: 35 mg/kg
[1]; [2]
  IC50: 5.9 nM

## CCCCON=C(C)C1=C(C)NC(C)=C(C(=O)OC)C1c1cccc([N+](=O)[O-])c1 (centres unmarked) [0246B]
In vivo
  LD50 at 168 h: 37.5 mg/kg
[1]; [2]
  IC50: 7 nM
[1]; taenia coli
  inhibition of contractions due to CaCl2 after repeated washing of the tissue: increases progressively in spite of repeated washing of the tissue
